Measurements from patent US20250100968A1, “BICYCLIC-HETEROCYCLE DERIVATIVES AND RELATED USES” (CENTESSA PHARMACEUTICALS (UK) LIMITED, priority 2022, published 2025).
pEC50: −log10 of the molar value.

Biological target: T1, human orexin type 2 receptor (hOX2R) (Homo sapiens, UniProt O43614)
T1 sequence (O43614 1-444): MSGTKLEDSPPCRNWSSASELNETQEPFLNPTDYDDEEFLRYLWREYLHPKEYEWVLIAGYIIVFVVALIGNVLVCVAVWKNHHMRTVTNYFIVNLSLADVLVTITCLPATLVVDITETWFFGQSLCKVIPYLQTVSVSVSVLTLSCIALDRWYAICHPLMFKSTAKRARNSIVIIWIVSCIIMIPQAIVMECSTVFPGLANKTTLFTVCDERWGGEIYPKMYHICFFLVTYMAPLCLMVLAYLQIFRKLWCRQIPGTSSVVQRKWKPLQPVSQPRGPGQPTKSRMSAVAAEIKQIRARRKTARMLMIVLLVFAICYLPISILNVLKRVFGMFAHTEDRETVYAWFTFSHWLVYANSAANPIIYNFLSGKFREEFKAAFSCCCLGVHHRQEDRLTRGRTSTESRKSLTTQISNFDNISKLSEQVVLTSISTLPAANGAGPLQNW
Experiment: cell-based
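Note: agonist activity in CHO cells stably expressing hOX2R, intracellular Ca2+ via Calcium 5 dye fluorescence area over 2 min, buffer-only as 0% and 10 nM orexin A as 100%.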

Experimental: Measurement of orexin type 2 receptor agonist activity. […] After removal of the medium, 50 μl of assay buffer 1 (0.1% bovine serum albumin (Sigma Aldrich), 20 mM HEPES (Molecular Dimensions), 250 mM probenecid (Sigma Aldrich), 1× Calcium 5 dye (Molecular Devices) in Hank's balanced salt solution (Invitrogen)) was added, and the cells were incubated for 60 min under the conditions of 37° C., 5% CO2. A test compound was dissolved in dimethyl sulfoxide (Sigma Aldrich) to 10 mM, and then diluted with assay buffer 2 (20 mM HEPES, Hank's balanced salt solution, 0.1% bovine serum albumin). For the reaction, a test compound solution (10 μl) was added using Fluorescent Imaging Plate Reader TETRA (FLIPR TETRA: manufactured by Molecular Devices), a fluorescence value (excitation wavelength 488 nm, measurement wavelength 570 nm) of each well was measured every one second for 2 min, and the agonist activity was determined using the area of the fluorescence value as an indicator of intracellular Ca^2+ concentration. The agonist activity of the test compound was calculated assuming that the fluorescence value of the well added with only the dilution buffer was 0% and the fluorescence value of the well added with 10 nM human orexin A (Tocris) buffer was 100%.

Compound | pEC50
C[C@H](C#N)C(=O)N1CC2(CC2)[C@H](NS(=O)(=O)CF)[C@@H]1Cc1cccc(-c2cc(F)cc(F)c2)c1F [compound 62, N-((6S,7S)-5-((R)-2-cyanopropanoyl)-6-((2,3′,5′-trifluoro-[1,1′-biphenyl]-3-yl)methyl)-5-azaspiro[2.4]heptan-7-yl)-1-fluoromethanesulfonamide] | 8.00 to 9.00
N#C[C@]1(C(=O)N2CC3(CC3)[C@H](NS(=O)(=O)CF)[C@@H]2Cc2cc(F)cc(-c3ccccc3)c2F)C[C@@H](F)C1 [compound 90, N-((6S,7S)-5-((1s,3R)-1-cyano-3-fluorocyclobutane-1-carbonyl)-6-((2,5-difluoro-[1,1′-biphenyl]-3-yl)methyl)-5-azaspiro[2.4]heptan-7-yl)-1-fluoromethanesulfonamide] | 8.00 to 9.00
CC(C)(F)CNC(=O)N1CC2(CC2)[C@H](NS(=O)(=O)CF)[C@@H]1Cc1cccc(-c2cccc(F)c2)c1F [compound 73, (6S,7S)-6-((2,3′-difluoro-[1,1′-biphenyl]-3-yl)methyl)-N-(2-fluoro-2-methylpropyl)-7-((fluoromethyl)sulfonamido)-5-azaspiro[2.4]heptane-5-carboxamide] | 8.00 to 9.00
C[C@@](O)(CF)C(=O)N1CC2(CC2)[C@H](NS(=O)(=O)C(F)F)[C@@H]1Cc1cccc(-c2cc(F)cc(F)c2)c1F [compound 1, 1,1-difluoro-N-((6S,7S)-5-((S)-3-fluoro-2-hydroxy-2-methylpropanoyl)-6-((2,3′,5′-trifluoro-[1,1′-biphenyl]-3-yl)methyl)-5-azaspiro[2.4]heptan-7-yl)methanesulfonamide] | 8.00 to 9.00
N#C[C@@]1(C(=O)N2CC3(CC3)[C@H](NS(=O)(=O)CF)[C@@H]2Cc2cccc(-c3cc(F)ccc3F)c2F)CCO1 [compound 79, N-((6S,7S)-5-((R)-2-cyanooxetane-2-carbonyl)-6-((2,2′,5′-trifluoro-[1,1′-biphenyl]-3-yl)methyl)-5-azaspiro[2.4]heptan-7-yl)-1-fluoromethanesulfonamide] | 9.00 to 10.20
C[C@@H](F)S(=O)(=O)N[C@@H]1[C@H](Cc2cccc(-c3cc(F)cc(F)c3)c2F)N(C(=O)C2CCO2)CC12CC2 (mixture of isomers) [compound 43, (S)-1-fluoro-N-((6S,7S)-5-((RS)-oxetane-2-carbonyl)-6-((2,3′,5′-trifluoro-[1,1′-biphenyl]-3-yl)methyl)-5-azaspiro[2.4]heptan-7-yl)ethane-1-sulfonamide] | 8.00 to 9.00
N#C[C@]1(C(=O)N2CC3(CC3)[C@H](NS(=O)(=O)CF)[C@@H]2Cc2cccc(-c3cc(F)ccc3F)c2F)CCO1 [compound 80, N-((6S,7S)-5-((S)-2-cyanooxetane-2-carbonyl)-6-((2,2′,5′-trifluoro-[1,1′-biphenyl]-3-yl)methyl)-5-azaspiro[2.4]heptan-7-yl)-1-fluoromethanesulfonamide] | 9.00 to 10.20
CC[C@@](C)(O)C(=O)N1CC2(CC2)[C@H](NS(=O)(=O)C(F)F)[C@@H]1Cc1cccc(-c2cc(F)cc(F)c2)c1F [compound 77, 1,1-difluoro-N-((6S,7S)-5-((R)-2-hydroxy-2-methylbutanoyl)-6-((2,3′,5′-trifluoro-[1,1′-biphenyl]-3-yl)methyl)-5-azaspiro[2.4]heptan-7-yl)methanesulfonamide] | 9.00 to 10.20
C[C@H](C#N)C(=O)N1CC2(CC2)[C@H](NS(=O)(=O)C(F)F)[C@@H]1Cc1cccc(-c2ccccc2)c1F [compound 40, N-((6S,7S)-5-((R)-2-cyanopropanoyl)-6-((2-fluoro-[1,1′-biphenyl]-3-yl)methyl)-5-azaspiro[2.4]heptan-7-yl)-1,1-difluoromethanesulfonamide] | 8.00 to 9.00
CO[C@@H](C)C(=O)N1CC2(CC2)[C@H](NS(=O)(=O)CF)[C@@H]1Cc1cccc(-c2cc(F)cc(F)c2)c1F [compound 69, 1-fluoro-N-((6S,7S)-5-((S)-2-methoxypropanoyl)-6-((2,3′,5′-trifluoro-[1,1′-biphenyl]-3-yl)methyl)-5-azaspiro[2.4]heptan-7-yl)methanesulfonamide] | 9.00 to 10.20
CO[C@@H](C)C(=O)N1CC2(CC2)[C@H](NS(=O)(=O)C(F)F)[C@@H]1Cc1cccc(-c2cc(F)cc(F)c2)c1F [compound 65, 1,1-difluoro-N-((6S,7S)-5-((S)-2-methoxypropanoyl)-6-((2,3′,5′-trifluoro-[1,1′-biphenyl]-3-yl)methyl)-5-azaspiro[2.4]heptan-7-yl)methanesulfonamide] | 8.00 to 9.00
O=C([C@@H](O)C1CC1)N1CC2(CC2)[C@H](NS(=O)(=O)C(F)F)[C@@H]1Cc1cccc(-c2cc(F)cc(F)c2)c1F [compound 32, N-((6S,7S)-5-((S)-2-cyclopropyl-2-hydroxyacetyl)-6-((2,3′,5′-trifluoro-[1,1′-biphenyl]-3-yl)methyl)-5-azaspiro[2.4]heptan-7-yl)-1,1-difluoromethanesulfonamide] | 8.00 to 9.00
O=C([C@H](O)CF)N1CC2(CC2)[C@H](NS(=O)(=O)CF)[C@@H]1Cc1cccc(-c2cc(F)cc(F)c2)c1F [compound 23, 1-fluoro-N-((6S,7S)-5-((S)-3-fluoro-2-hydroxypropanoyl)-6-((2,3′,5′-trifluoro-[1,1′-biphenyl]-3-yl)methyl)-5-azaspiro[2.4]heptan-7-yl)methanesulfonamide] | 8.00 to 9.00
CO[C@H](C)C(=O)N1CC2(CC2)[C@H](NS(=O)(=O)CF)[C@@H]1Cc1cccc(-c2cc(F)cc(F)c2)c1F [compound 68, 1-fluoro-N-((6S,7S)-5-((R)-2-methoxypropanoyl)-6-((2,3′,5′-trifluoro-[1,1′-biphenyl]-3-yl)methyl)-5-azaspiro[2.4]heptan-7-yl)methanesulfonamide] | 8.00 to 9.00
C[C@@](O)(CF)C(=O)N1CC2(CC2)[C@H](NS(=O)(=O)CF)[C@@H]1Cc1cccc(-c2ccccc2)c1F [compound 35, 1-fluoro-N-((6S,7S)-5-((S)-3-fluoro-2-hydroxy-2-methylpropanoyl)-6-((2-fluoro-[1,1′-biphenyl]-3-yl)methyl)-5-azaspiro[2.4]heptan-7-yl)methanesulfonamide] | 9.00 to 10.20
COC1CN(C(=O)N2CC3(CC3)[C@H](NS(=O)(=O)C(F)F)[C@@H]2Cc2cccc(-c3cc(F)cc(F)c3)c2F)C1 [compound 52, 1,1-difluoro-N-((6S,7S)-5-(3-methoxyazetidine-1-carbonyl)-6-((2,3′,5′-trifluoro-[1,1′-biphenyl]-3-yl)methyl)-5-azaspiro[2.4]heptan-7-yl)methanesulfonamide] | 8.00 to 9.00
C[C@@H](C#N)C(=O)N1CC2(CC2)[C@H](NS(=O)(=O)C(F)F)[C@@H]1Cc1cccc(-c2cc(F)cc(F)c2)c1F [compound 70, N-((6S,7S)-5-((S)-2-cyanopropanoyl)-6-((2,3′,5′-trifluoro-[1,1′-biphenyl]-3-yl)methyl)-5-azaspiro[2.4]heptan-7-yl)-1,1-difluoromethanesulfonamide] | 8.00 to 9.00
O=C([C@@H](O)C1CC1)N1CC2(CC2)[C@H](NS(=O)(=O)CF)[C@@H]1Cc1cccc(-c2cc(F)cc(F)c2)c1F [compound 3, N-((6S,7S)-5-((S)-2-cyclopropyl-2-hydroxyacetyl)-6-((2,3′,5′-trifluoro-[1,1′-biphenyl]-3-yl)methyl)-5-azaspiro[2.4]heptan-7-yl)-1-fluoromethanesulfonamide] | 7.00 to 8.00
